Results on 10 compounds are retold here after US6943148B1, “Methods for delivering therapeutics across blood-barrier and for altering receptor binding affinity” (Nobex Corporation, priority 1998, dated 2005).

The nature of data set [1]: Extraction and detection of enkephalin conjugates from the brain of dosed rats (HPLC). It counts as in vivo. The following applies: rat brain removed 10 minutes after dosing; 5 mg/kg cetyl-PEG2-enkephalin; compared with standard peak. The protocol: The following procedure was used to identify the presence of conjugate from the brain specimen of animals dosed with 5 mg/kg cetyl-PEG2-enkephalin SEQ ID NO: 1.
After 10 minutes of dosing, the brain of the animal was perfused with 1.5% triflouroacetic acid in PBS solution, and the brain was removed and frosen at −70° C. The brain was homogenized with 1 mL of 1.5% triflouroacetic acid in PBS solution and the homogenate was extracted with acetonitrile/isopropanol solution. The extract was treated with saturated sodium chloride solution and frozen at −20° C. for 2 hours. The organic layer was isolated and centrifuged at 4000 RPM. The supernatant was evaporated and the resulting residue was reconstituted in acetonitrile/isopropanol/water mixture. The reconstituted solution was analyzed by HPLC using a gradient of 10 to 100% isopropanol/water (0.1% trifloiroacetic acid) on a C-18 column. The presence and the concentration of cetyl-PEG2-enkephalin SEQ ID NO: 1 conjugate in the extract were measured by comparing the retention time and the peak area of standard solution under the same analytical condition.

The subject of another data set is Sprague-Dawley rats. The experiment in a line: Rat paw-hot plate test. The following applies: for Mean Analgesia as Compared with Morphine at 3 mg/Kg @ 5 min / Mean Analgesia as Compared with Morphine at 3 mg/Kg @ 30 min: hot plate 52° C., dose (mg/kg): Morphine 3, Enkephalin 20, Cetyl 5, DHA 20, Cholesterol 5, Linolenic 10; for analgesic effect as compared to morphine as a baseline: hot plate, time not stated, enkephalin 20 mg/kg. The format is in vivo. The protocol: Adult, male Sprague-Dawley rats weighing 150-175 g were obtained from Charles River Breeding Laboratories (Raleigh, NC) and used for all animal studies. Rats were housed in hanging wire-bottomed cages in a vivarium equipped with a 12:12 light:dark cycle and humidity was maintained between 45-65% with a room temperature of […]. Rats were provided Purina Rodent Chow and tap water ad libitum.
Met-enkephalin-lys SEQ ID NO: 49 and met-enkephalin-lys SEQ ID NO: 1 derivatives were assessed for analgesic activity by rat paw-hot plate assay. Rats were given an injection of naloxone at 0.5 mg/kg (s.c.) then administered a single administration of cetyl-enkephalin SEQ ID NO: 1 by the tail vein 10 minutes later at a dose of 5.0 mg/kg.
In a separate study, rats were administered cetyl-enkephalin SEQ ID NO: 1 (5.0 mg/kg, i.v.) or clonidine (0.125 mg/kg, i.v.).
The latency to rat paw withdrawal from the hot plate was measured by a Hot Plate Analgesia Meter (Harvard Apparatus Ltd., Kent, England). The temperature of the hot plate was set and calibrated at 52° C. and rats were removed from the heat stimulus by 36 seconds after placement. Latency trials were terminated when the animal was either licking a hind paw or initiating a jump from the plate. Baseline measurements were collected 1 hour prior to drug administration and at various times post-injection, dependent upon the study conducted. All hot plate testing was terminated by 1 hour after drug dosing.
(In general: In hot-plate and tail-flick tests a longer latency is read as antinociception.)

For the next data set, the target named is T1, μ-receptor (Rattus norvegicus, UniProt P33535).
T1 construct: assessed for analgesic activity by rat paw-hot plate assay; from tissue; host or cells: whole living rat (in vivo)
T1 sequence (P33535 whole entry, looked up): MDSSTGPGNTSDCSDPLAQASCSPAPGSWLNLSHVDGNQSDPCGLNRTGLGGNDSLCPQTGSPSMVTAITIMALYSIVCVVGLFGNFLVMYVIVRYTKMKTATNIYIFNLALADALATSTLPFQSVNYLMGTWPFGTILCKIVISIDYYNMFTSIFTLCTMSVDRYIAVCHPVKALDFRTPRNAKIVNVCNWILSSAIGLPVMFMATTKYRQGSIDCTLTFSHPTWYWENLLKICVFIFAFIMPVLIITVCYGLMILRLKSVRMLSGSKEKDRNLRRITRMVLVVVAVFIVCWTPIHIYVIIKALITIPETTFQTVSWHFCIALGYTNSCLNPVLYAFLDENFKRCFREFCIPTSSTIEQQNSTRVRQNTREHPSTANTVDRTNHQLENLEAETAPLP
The experiment in a line: % SPECIFIC BINDING. The settings on record: 0.1 µM. An excerpt:
Table printed on a drawing sheet, FIG.8
Head of the field: % […] BINDING
First copying reader's note: The title is printed as the top row inside the table frame and is given as the title, not as a grid row.

Where a SMILES comes first, the peptide text is derived from it. Where no end group is shown, it is not given here. The star is where a group is joined. X1 = CCCCCCCCCCCCCCCCOCCOCCOC(=O)*

`CCCCCCCCCCCCCCCCOCCOCCOC(=O)NCCCC[C@H](NC(=O)[C@H](CCSC)NC(=O)[C@H](Cc1ccccc1)NC(=O)CNC(=O)CNC(=O)[C@@H](N)Cc1ccc(O)cc1)C(=O)O` [Cetyl-PEG-ENK, CETYL MET-ENKEPHALIN-LYS] (H-YGGFMK(X1)-OH): the “Presence of conjugate peak in brain extract (HPLC)” value in data set [1] is recorded as “actually present in the brain exact”.
For `CN1CC[C@]23c4c5ccc(O)c4O[C@H]2[C@@H](O)C=C[C@H]3[C@H]1C5` [Morphine, reference compound], in the data set on Sprague-Dawley rats, the “Mean Analgesia as Compared with Morphine at 3 mg/Kg @ 5 min” value came to 100% and the “Mean Analgesia as Compared with Morphine at 3 mg/Kg @ 30 min” value turned out to be 100%.
Turning to “CETYL-PEG2-ENK (SEQ ID NO: 1) (YGGFMK; also: cetyl-PEG2 conjugate, site not given here) [CETYL-ENK]”, the “% SPECIFIC BINDING” value in the data set with μ-receptor amounted to 100%.
Same read-out and setting: to “CETYL-PEG3-ENK (SEQ ID NO: 1) (YGGFMK; also: cetyl-PEG3 conjugate, site not given here) [CETYL-TEG-ENK]” belongs 100%; to “CHOLESTEROL-PEG3-ENK (SEQ ID NO: 1) (YGGFMK; also: cholesterol-PEG3 conjugate, site not given here) [CHOL-ENK]”, 95%.
For the compound DHA MET-ENKEPHALIN-LYS [DHA-PEG-ENK], in the data set with Sprague-Dawley rats, the “Mean Analgesia as Compared with Morphine at 3 mg/Kg @ 5 min” value was 130%, the “Mean Analgesia as Compared with Morphine at 3 mg/Kg @ 30 min” value came to 67% and the “analgesic effect as compared to morphine as a baseline” value is listed as 130%.
As for “DHA-PEG2-ENK (SEQ ID NO: 1) (YGGFMK; also: DHA-PEG2 conjugate, site not given here) [DHA-ENK]”, in the data set with μ-receptor, the “% SPECIFIC BINDING” value worked out at 63%.
As to “LINOLEIC MET-ENKEPHALIN-LYS [Linolenic-PEG-ENK]”, in the data set with Sprague-Dawley rats, the “Mean Analgesia as Compared with Morphine at 3 mg/Kg @ 5 min” value is listed as 77% and the “Mean Analgesia as Compared with Morphine at 3 mg/Kg @ 30 min” value turned out to be 73%.
Take “Met enkephalin-lys (YGGFMK) [reference compound]”: in the data set on Sprague-Dawley rats, the “Mean Analgesia as Compared with Morphine at 3 mg/Kg @ 5 min” value turned out to be 0%, the “Mean Analgesia as Compared with Morphine at 3 mg/Kg @ 30 min” value was found to be 0% and the “analgesic effect as compared to morphine as a baseline” value was 0%. Moreover, the “Presence of conjugate peak in brain extract (HPLC)” value in data set [1] was “neither the vehicle (FIG. 5C) nor the unconjugated enkephalin SEQ ID NO: 49 (FIG. 5D) showed a corresponding peak”.
In the case of “PALMITATE-PEG3-ENK (SEQ ID NO: 1) [PALM-ENK]”, the “% SPECIFIC BINDING” value at μ-receptor came to 76%.
